# Results reported in patent US20250145600A1, “2-((4-((S)-2-(4-CHLORO-2-FLUOROPHENYL)-2-METHYLBENZO[D][1,3]DIOXOL-4-YL)PIPERIDIN-1-YL)METHYL)-1-(((S)-OXETAN-2-YL)METHYL)-1H-IMIDAZOLE DERIVATIVES AS ACTIVATORS OF THE GLP1 RECEPTOR FOR THE TREATMENT OF OBESITY” (Novartis AG, priority 2022, published 2025).
# Target: human GLP1R (hGLP1R) (Homo sapiens, UniProt P43220)
# Experiment: Human GLP1R β-arrestin recruitment assay (PathHunter)
# Format: cell-based
# Design: insert synthesized by GeneArt 93-0164 (CHO-K1-EA parental cells); 93-0491 (pCMV PK vector bundle)
# Conditions: CHO-hGLP1R-β-arrestin cells
# Description: Compounds of formula (I) according to the invention were tested in the following cellular assays that measure the intracellular cAMP concentration, beta-arrestin recruitment and receptor internalization. The cAMP is generated by the activation of GLP1R. The extent to which the GLP1R is internalized into the cell and away from the plasma membrane following activation is also shown in Table 2. EC50 for each assay is defined as the concentration of the compound that leads to half of the maximum response (after baseline correction). Emax is defined as the maximum response observed for the test compound, normalized to the maximum response observed for the endogenous ligand (GLP1(7-36)) to GLP1R.
# Human GLP1R β-Arrestin Recruitment Assay
# The extent to which agonists recruited β-arrestin was measured using the PathHunter® β-arrestin assay (DiscoverX). This assay measures binding of β-arrestin to the receptor using an enzyme complementation approach. […] When β-arrestin is recruited to the receptor the enzyme becomes active and generates luminescence in the presence of a chemiluminescent substrate (PathHunter® Detection Kit, DiscoverX cat #93-0001). Luminescence can be measured on a relevant detector. CHO-hGLP1R-β-arrestin cells stably overexpressing hGLP1R with Prolink tag and β-arrestin with EA tag were seeded at 20 μL per well in white 384-well poly-D-Lysine coated plates (Greiner Bio One, cat #781945) in Plating Reagent 2 (DiscoverX, cat #93-0563R^2A), and incubated overnight at 37° C., 5% CO2 with humidity. The following day, agonists were prepared at 5 times the final required concentration. To generate triplicate dose response curves, compounds were serially diluted 3-fold in assay buffer (HBSS, 10 mM Hepes and 0.1% BSA), then added to the cell assay plate to a final volume of 25 μL and final top concentrations starting at 30 μM. In the same plate and assay buffer as the tested compounds, were EC100 control wells containing GLP1 (7-36) peptide (Bachem, cat #H-6795) at a final concentration of 1 μM and also EC0 control wells containing no compound. The plate was incubated at 37° C., 5% CO2 with humidity for 2 h after adding the compounds to the cells. Then the detection reagent was prepared (19 parts cell assay buffer, 5 parts substrate reagent 1 and 1 part substrate reagent 2 as per manufacturers recommendations, DiscoverX cat #93-0001), and 12 μL were added per well to the cell assay plate. The plate was incubated for an additional hour in the dark at RT. Luminescence was then measured with an Envision 2104 Multilabel reader with “TRF Light Unit, 337 nm” (Perkin Elmer) using the Ultra-Sensitive protocol setting “384-well US luminescence detector” with the 384-well luminescence aperture, 0.1 sec per well. β-arrestin recruitment was calculated and expressed as percent of the GLP1 (7-36) EC100 control wells: [(sample signal−mean EC0 signal)/(mean EC100 of GLP1 (7-36) signal−mean EC0 signal)]*100 using Microsoft Excel. Curve fitting for EC50 determinations was performed using GraphPad Prism. The 4-parameter logistic model, Hill slope was used: Y=Bottom+(Top−Bottom)/(1+10^((Log EC50−X)*Hill Slope)), where Y is the functional response; X is the compound concentration; bottom is A0 or the minimum value (at 0 dose); top is Ainf or the maximum value (at infinite dose); EC50 is the point of inflection (i.e. the point on the sigmoid shaped curve halfway between A0 and Ainf). The EC50 value was calculated in μM. Emax is the maximal activity detected within the concentration range, derived from the fitted curve relative to GLP1(7-36).
# PathHunter CHO-K1-EA parental cells (DiscoverX, cat #93-0164) were plated at a density of 2×10^6 cells per T75 cm^2 flask in 22 mL of complete medium (AssayComplete Cell Culture kit 107, DiscoverX, cat #92-3107G). The following day, the medium was replaced with 22 mL of fresh medium with no antibiotics and cells were transfected as follows. […]
# Sequence of human GLP1R (hGLP1R) (P43220 24-463): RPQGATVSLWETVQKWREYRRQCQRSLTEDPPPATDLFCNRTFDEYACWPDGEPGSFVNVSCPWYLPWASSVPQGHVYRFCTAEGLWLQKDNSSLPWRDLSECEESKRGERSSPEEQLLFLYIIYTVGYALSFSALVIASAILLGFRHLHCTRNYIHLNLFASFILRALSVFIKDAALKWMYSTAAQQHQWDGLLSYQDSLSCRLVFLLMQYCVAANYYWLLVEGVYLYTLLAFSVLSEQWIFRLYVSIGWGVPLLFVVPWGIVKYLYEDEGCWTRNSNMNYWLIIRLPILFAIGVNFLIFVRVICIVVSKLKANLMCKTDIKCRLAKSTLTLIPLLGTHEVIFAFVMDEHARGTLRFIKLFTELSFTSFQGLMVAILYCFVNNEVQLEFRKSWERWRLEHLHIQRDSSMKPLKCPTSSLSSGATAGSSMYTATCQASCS
compound,measurement,setting,value
"Cc1nc(CN2CCC(c3cccc4c3O[C@@](C)(c3ccc(Cl)cc3F)O4)CC2)n(C[C@@H]2CCO2)c1-c1nc(C(=O)O)c(C)o1 [Compound C-1, 2-(2-((4-((S)-2-(4-chloro-2-fluorophenyl)-2-methylbenzo[d][1,3]dioxol-4-yl)piperidin-1-yl)methyl)-4-methyl-1-(((S)-oxetan-2-yl)methyl)-1H-imidazol-5-yl)-5-methyloxazole-4-carboxylic acid]",EC50,"2 h at 37° C., top concentration 30 μM, read-out: Beta-Arrestin assay EC50 Mean",> 30 µM
same,Emax,"relative to GLP1(7-36), read-out: Beta-Arrestin assay Emax (%)",2%
